Drawing on ChEMBL document CHEMBL3046696, “QSAR analysis of caffeoyl naphthalene sulfonamide derivatives as HIV-1 integrase inhibitors” (Med Chem Res, 2006), this text covers logP for 48 compounds.

The data set can be described thus: physchem. Conditions: octanol/water.

Description: Octanol-water partition coefficient, log P of the compound

As a reminder, the logP is a log measure of how a compound divides between an organic and an aqueous phase. Take `CC(=O)Oc1ccc(/C=C/C(=O)Nc2cccc3c(S(=O)(=O)Nc4ccccc4C)cccc23)cc1OC(C)=O`: the logP turned out to be 4.18. On to `O=C(/C=C/c1ccc(O)c(O)c1)Nc1cccc2c(S(=O)(=O)Nc3ccc(Cl)cc3)cccc12`, for which the log partition coefficient (logP) is 3.71. The value for `O=C(/C=C/c1ccc(O)c(O)c1)Nc1cccc2c(S(=O)(=O)Nc3ccc(Br)cc3)cccc12` was 4.14.

The compound `Cc1ccc(NS(=O)(=O)c2cccc3c(NC(=O)/C=C/c4ccc(O)c(O)c4)cccc23)cc1` yielded a logP of 4.13.

`O=C(/C=C/c1ccc(O)c(O)c1)Nc1cccc2c(S(=O)(=O)Nc3cccc([N+](=O)[O-])c3)cccc12` came in with a logP of 4.57. `Cc1ccccc1NS(=O)(=O)c1cccc2c(NC(=O)/C=C/c3ccc(O)c(O)c3)cccc12` had a logP of 4.6. The value for `Cc1cccc(NS(=O)(=O)c2cccc3c(NC(=O)/C=C/c4ccc(O)c(O)c4)cccc23)c1C` was 5.03. Compound `CC(=O)Oc1ccc(/C=C/C(=O)Nc2cccc3c(S(=O)(=O)Nc4cccc(C(C)C)c4)cccc23)cc1OC(C)=O` registered a log partition coefficient (logP) of 4.86. To `CC(=O)Oc1ccc(/C=C/C(=O)Nc2cccc3c(S(=O)(=O)Nc4ccc(C(C)C)cc4)cccc23)cc1OC(C)=O` belongs 4.86; to `CCCCc1cc(NC(=O)/C=C/c2ccc(OC(C)=O)c(OC(C)=O)c2)c2cccc(S(=O)(=O)Nc3ccccc3)c2c1`, 5.32. To `CCCCN(c1ccc(F)cc1)S(=O)(=O)c1cccc2c(NC(=O)/C=C/c3ccc(OC(C)=O)c(OC(C)=O)c3)cccc12` belongs 5.12; to `CC(=O)Oc1ccc(/C=C/C(=O)Nc2cccc3c(S(=O)(=O)Nc4ccc(C(F)(F)F)cc4)cccc23)cc1OC(C)=O`, 4.55; to `CC(=O)Oc1ccc(/C=C/C(=O)Nc2cccc3c(S(=O)(=O)Nc4ccccc4C(F)(F)F)cccc23)cc1OC(C)=O`, 4.55. The value for `CC(=O)Oc1ccc(/C=C/C(=O)N(c2cccc3c(S(=O)(=O)Nc4ccccc4)cccc23)C(F)(F)F)cc1OC(C)=O` was 5.66; that for `CCc1ccc(N(C(=O)/C=C/c2ccc(OC(C)=O)c(OC(C)=O)c2)c2cc(C(F)(F)F)cc3c(S(=O)(=O)Nc4ccc(S(=O)(=O)CC)cc4)cccc23)cc1` was 7.34; that for `CC(=O)Oc1ccc(/C=C/C(=O)N(c2cccc3c(S(=O)(=O)Nc4cccc(C(F)(F)F)c4)cccc23)C(F)(F)F)cc1OC(C)=O` was 6.54.

Take `CC(=O)Oc1ccc(/C=C/C(=O)N(c2cccc3c(S(=O)(=O)Nc4ccc(C(F)(F)F)cc4)cccc23)C(F)(F)F)cc1OC(C)=O`: the log partition coefficient (logP) was 6.54. The value for `CC(=O)Oc1ccc(/C=C/C(=O)Nc2cccc3c(S(=O)(=O)Nc4ccc(SC(F)(F)F)cc4)cccc23)cc1OC(C)=O` was 5.5. The value for `CC(=O)Oc1ccc(/C=C/C(=O)Nc2cccc3c(S(=O)(=O)Nc4ccc(S(=O)(=O)C(F)(F)F)cc4)cccc23)cc1OC(C)=O` was 4.55. To `CC(=O)Oc1ccc(/C=C/C(=O)N(SC(F)(F)F)c2cccc3c(S(=O)(=O)Nc4ccc(S(=O)(=O)C(F)(F)F)cc4)cccc23)cc1OC(C)=O` belongs 7.16; to `CC(=O)Oc1ccc(/C=C/C(=O)N(c2cccc3c(S(=O)(=O)Nc4ccc(SC(F)(F)F)cc4)cccc23)S(=O)(=O)C(F)(F)F)cc1OC(C)=O`, 7.16. As for `CCS(=O)(=O)c1ccc(NS(=O)(=O)c2cccc3c(N(C(=O)/C=C/c4ccc(OC(C)=O)c(OC(C)=O)c4)S(=O)(=O)C(F)(F)F)cccc23)cc1`, the logP turned out to be 4.81. In the case of `CCS(=O)(=O)c1ccc(NS(=O)(=O)c2cccc3c(NC(=O)/C=C/c4ccc(OC(C)=O)c(OC(C)=O)c4)cccc23)cc1`, the logP was 3.15. The value for `CCS(=O)(=O)c1cc(NC(=O)/C=C/c2ccc(OC(C)=O)c(OC(C)=O)c2)c2cccc(S(=O)(=O)Nc3ccccc3)c2c1` was 3.15. The compound `CCS(=O)(=O)N(C(=O)/C=C/c1ccc(OC(C)=O)c(OC(C)=O)c1)c1cccc2c(S(=O)(=O)Nc3ccccc3)cccc12` came in with a logP of 3.92. The value for `CC(=O)Oc1ccc(/C=C/C(=O)N(c2cccc3c(S(=O)(=O)Nc4ccc(S(=O)(=O)C(F)(F)F)cc4)cccc23)C(F)(F)F)cc1OC(C)=O` was 6.03; that for `CC(=O)Oc1ccc(/C=C/C(=O)Nc2cccc3c(S(=O)(=O)Nc4ccccc4)cccc23)cc1OC(C)=O` was 3.66. `CC(=O)Oc1ccc(/C=C/C(=O)Nc2cccc3c(S(=O)(=O)NCc4ccccc4)cccc23)cc1OC(C)=O`: the logP turned out to be 4.1. As for `CC(=O)Oc1ccc(/C=C/C(=O)Nc2cccc3c(S(=O)(=O)NCCc4ccccc4)cccc23)cc1OC(C)=O`, the logP came to 3.76. The value for `CC(=O)Oc1ccc(/C=C/C(=O)Nc2cccc3c(S(=O)(=O)Nc4ccc(F)cc4)cccc23)cc1OC(C)=O` was 4.19; that for `CC(=O)Oc1ccc(/C=C/C(=O)Nc2cccc3c(S(=O)(=O)Nc4ccc(Cl)cc4)cccc23)cc1OC(C)=O` was 4.01.

The compound `CC(=O)Oc1ccc(/C=C/C(=O)Nc2cccc3c(S(=O)(=O)Nc4ccc(Br)cc4)cccc23)cc1OC(C)=O` showed a logP of 4.44. To `CC(=O)Oc1ccc(/C=C/C(=O)Nc2cccc3c(S(=O)(=O)Nc4ccc(C)cc4)cccc23)cc1OC(C)=O` belongs 3.8; to `CC(=O)Oc1ccc(/C=C/C(=O)Nc2cccc3c(S(=O)(=O)Nc4cccc([N+](=O)[O-])c4)cccc23)cc1OC(C)=O`, 4.24; to `CC(=O)Oc1ccc(/C=C/C(=O)Nc2cccc3c(S(=O)(=O)Nc4cccc(C)c4C)cccc23)cc1OC(C)=O`, 4.62. Regarding `O=C(/C=C/c1ccc(O)c(O)c1)Nc1cccc2c(S(=O)(=O)Nc3ccccc3)cccc12`, the log partition coefficient (logP) worked out at 4.46. As to `O=C(/C=C/c1ccc(O)c(O)c1)Nc1cccc2c(S(=O)(=O)NCc3ccccc3)cccc12`, the logP came to 4.89. To `O=C(/C=C/c1ccc(O)c(O)c1)Nc1cccc2c(S(=O)(=O)NCCc3ccccc3)cccc12` belongs 4.13. The value for `O=C(/C=C/c1ccc(O)c(O)c1)Nc1cccc2c(S(=O)(=O)Nc3ccc(F)cc3)cccc12` was 4.57; that for `CC(=O)Oc1ccc(/C=C/C(=O)N(c2ccccc2)c2cccc3c(S(=O)(=O)Nc4ccccc4)cccc23)cc1OC(C)=O` was 5.59; that for `CCN(c1ccccc1)S(=O)(=O)c1cccc2c(N(C(=O)/C=C/c3ccc(OC(C)=O)c(OC(C)=O)c3)c3ccccc3)cc(C)cc12` was 6.65.

The compound `CCN(c1ccccc1)S(=O)(=O)c1cccc2c(N(C(=O)/C=C/c3ccc(OC(C)=O)c(OC(C)=O)c3)c3ccccc3)cccc12` displayed a logP of 6.18. To `CCc1ccccc1NS(=O)(=O)c1cccc2c(NC(=O)/C=C/c3ccc(OC(C)=O)c(OC(C)=O)c3)cccc12` belongs 4.53.

`CCc1cccc(NS(=O)(=O)c2cccc3c(NC(=O)/C=C/c4ccc(OC(C)=O)c(OC(C)=O)c4)cccc23)c1` registered a logP of 4.53. The compound `CCc1ccc(NS(=O)(=O)c2cccc3c(NC(=O)/C=C/c4ccc(OC(C)=O)c(OC(C)=O)c4)cccc23)cc1` had a logP of 4.53. To `CCCc1ccccc1NS(=O)(=O)c1cccc2c(NC(=O)/C=C/c3ccc(OC(C)=O)c(OC(C)=O)c3)cccc12` belongs 4.92. Regarding `CCCc1cccc(NS(=O)(=O)c2cccc3c(NC(=O)/C=C/c4ccc(OC(C)=O)c(OC(C)=O)c4)cccc23)c1`, the logP turned out to be 4.92.

As to `CC(=O)Oc1ccc(/C=C/C(=O)Nc2cccc3c(S(=O)(=O)Nc4ccccc4C(C)C)cccc23)cc1OC(C)=O`, the logP turned out to be 4.86.
